ChEMBL document CHEMBL5465560, “Selectivity Literature for EUbOPEN Chemogenomic Library” (2024)

How the values were obtained:
[1] = biological target: T1, Serine/threonine-protein kinase VRK1 (Homo sapiens) (UniProt Q99986); assay: Selectivity interaction (Kinase panel (DSF assay)) EUB0001559a VRK1
T1 sequence (whole entry): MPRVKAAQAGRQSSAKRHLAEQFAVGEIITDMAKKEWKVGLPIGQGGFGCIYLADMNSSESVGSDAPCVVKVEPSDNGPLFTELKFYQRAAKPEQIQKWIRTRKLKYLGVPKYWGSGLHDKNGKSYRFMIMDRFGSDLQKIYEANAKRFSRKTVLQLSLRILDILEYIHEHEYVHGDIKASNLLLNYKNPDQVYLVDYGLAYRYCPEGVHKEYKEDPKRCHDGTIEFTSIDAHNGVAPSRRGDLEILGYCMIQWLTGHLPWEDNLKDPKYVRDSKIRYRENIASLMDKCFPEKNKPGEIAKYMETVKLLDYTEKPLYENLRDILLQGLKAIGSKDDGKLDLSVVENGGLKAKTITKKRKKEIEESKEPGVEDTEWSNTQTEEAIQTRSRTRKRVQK

[2] = biological target: Calcium/calmodulin-dependent protein kinase type 1 (Homo sapiens) (UniProt Q14012); assay: Selectivity interaction (KinomeScan (DiscoverX)) EUB0000045b CAMK1
Chain of Calcium/calmodulin-dependent protein kinase type 1 (Homo sapiens) (Q14012 whole entry, looked up): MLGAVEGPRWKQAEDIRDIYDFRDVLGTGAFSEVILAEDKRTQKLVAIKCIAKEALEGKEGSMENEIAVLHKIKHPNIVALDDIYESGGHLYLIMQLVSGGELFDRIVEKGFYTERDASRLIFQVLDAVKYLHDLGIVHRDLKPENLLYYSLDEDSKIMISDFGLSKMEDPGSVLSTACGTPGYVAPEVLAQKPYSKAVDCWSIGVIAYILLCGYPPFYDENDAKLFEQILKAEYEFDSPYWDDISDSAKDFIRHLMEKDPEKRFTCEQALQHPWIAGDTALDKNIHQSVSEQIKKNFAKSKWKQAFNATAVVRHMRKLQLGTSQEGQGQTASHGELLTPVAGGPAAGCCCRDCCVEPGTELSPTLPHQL

Histamine H3 receptor = Histamine H3 receptor (Homo sapiens, UniProt Q9Y5N1); assay: Selectivity interaction (GPCR panel (PDSP screen)) EUB0001079a HRH3; details: at 10 µM
Chain of Histamine H3 receptor (Q9Y5N1 whole entry): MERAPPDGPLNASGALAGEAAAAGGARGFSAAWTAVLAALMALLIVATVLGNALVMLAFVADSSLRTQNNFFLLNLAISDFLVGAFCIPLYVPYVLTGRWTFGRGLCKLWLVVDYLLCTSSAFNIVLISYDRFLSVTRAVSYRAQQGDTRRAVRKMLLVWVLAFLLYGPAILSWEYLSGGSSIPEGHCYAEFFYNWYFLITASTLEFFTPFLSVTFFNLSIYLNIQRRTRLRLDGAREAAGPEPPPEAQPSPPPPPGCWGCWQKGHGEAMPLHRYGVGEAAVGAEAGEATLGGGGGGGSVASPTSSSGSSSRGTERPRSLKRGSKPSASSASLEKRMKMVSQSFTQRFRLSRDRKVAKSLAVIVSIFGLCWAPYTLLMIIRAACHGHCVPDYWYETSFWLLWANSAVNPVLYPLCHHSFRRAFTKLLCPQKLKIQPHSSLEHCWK

[3] = biological target: Serine/threonine-protein kinase RIO2 (Homo sapiens) (UniProt Q9BVS4); assay: Selectivity interaction (KinomeScan (DiscoverX)) EUB0001049a RIOK2; details: at 1 µM
Chain of Serine/threonine-protein kinase RIO2 (Homo sapiens) (Q9BVS4 whole entry, looked up): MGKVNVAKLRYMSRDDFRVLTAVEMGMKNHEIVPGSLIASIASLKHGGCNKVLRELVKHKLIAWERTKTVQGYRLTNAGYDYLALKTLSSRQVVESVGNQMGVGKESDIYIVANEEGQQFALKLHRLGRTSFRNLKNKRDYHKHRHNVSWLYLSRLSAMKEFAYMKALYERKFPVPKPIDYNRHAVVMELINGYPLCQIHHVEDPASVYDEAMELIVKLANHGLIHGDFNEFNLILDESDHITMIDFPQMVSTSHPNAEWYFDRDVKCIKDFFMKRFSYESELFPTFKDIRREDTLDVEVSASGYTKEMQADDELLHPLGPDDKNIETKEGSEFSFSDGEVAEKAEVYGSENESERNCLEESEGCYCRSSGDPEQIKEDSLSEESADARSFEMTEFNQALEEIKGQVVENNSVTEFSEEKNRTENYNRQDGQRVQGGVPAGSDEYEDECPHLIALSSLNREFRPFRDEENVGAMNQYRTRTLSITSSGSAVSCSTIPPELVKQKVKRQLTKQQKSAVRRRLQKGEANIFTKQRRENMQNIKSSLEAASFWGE

[4] = biological target: Mitogen-activated protein kinase 4 (Homo sapiens) (UniProt P31152); assay: Selectivity interaction (KinomeScan (DiscoverX)) EUB0001049a MAPK4; details: at 1 µM
Chain of Mitogen-activated protein kinase 4 (Homo sapiens) (P31152 whole entry): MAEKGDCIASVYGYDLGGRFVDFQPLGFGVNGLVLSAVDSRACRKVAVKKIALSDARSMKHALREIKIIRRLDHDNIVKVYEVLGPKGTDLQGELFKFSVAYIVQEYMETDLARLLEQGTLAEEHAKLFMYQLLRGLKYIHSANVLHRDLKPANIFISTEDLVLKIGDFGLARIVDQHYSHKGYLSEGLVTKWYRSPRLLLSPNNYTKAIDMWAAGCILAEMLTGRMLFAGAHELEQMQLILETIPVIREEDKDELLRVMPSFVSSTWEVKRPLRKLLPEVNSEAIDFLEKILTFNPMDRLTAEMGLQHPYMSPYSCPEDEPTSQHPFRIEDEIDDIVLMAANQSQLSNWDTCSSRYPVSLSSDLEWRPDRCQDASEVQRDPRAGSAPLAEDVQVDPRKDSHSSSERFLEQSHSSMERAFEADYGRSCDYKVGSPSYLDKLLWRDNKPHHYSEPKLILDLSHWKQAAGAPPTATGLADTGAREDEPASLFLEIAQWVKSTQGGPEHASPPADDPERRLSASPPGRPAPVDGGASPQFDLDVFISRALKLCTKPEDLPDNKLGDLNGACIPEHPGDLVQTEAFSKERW

[5] = biological target: Protein kinase C eta type (Homo sapiens) (UniProt P24723); assay: Selectivity interaction (Millipore kinase profiler) EUB0000124b PRKCH; details: at 10 µM
Chain of Protein kinase C eta type (Homo sapiens) (P24723 whole entry): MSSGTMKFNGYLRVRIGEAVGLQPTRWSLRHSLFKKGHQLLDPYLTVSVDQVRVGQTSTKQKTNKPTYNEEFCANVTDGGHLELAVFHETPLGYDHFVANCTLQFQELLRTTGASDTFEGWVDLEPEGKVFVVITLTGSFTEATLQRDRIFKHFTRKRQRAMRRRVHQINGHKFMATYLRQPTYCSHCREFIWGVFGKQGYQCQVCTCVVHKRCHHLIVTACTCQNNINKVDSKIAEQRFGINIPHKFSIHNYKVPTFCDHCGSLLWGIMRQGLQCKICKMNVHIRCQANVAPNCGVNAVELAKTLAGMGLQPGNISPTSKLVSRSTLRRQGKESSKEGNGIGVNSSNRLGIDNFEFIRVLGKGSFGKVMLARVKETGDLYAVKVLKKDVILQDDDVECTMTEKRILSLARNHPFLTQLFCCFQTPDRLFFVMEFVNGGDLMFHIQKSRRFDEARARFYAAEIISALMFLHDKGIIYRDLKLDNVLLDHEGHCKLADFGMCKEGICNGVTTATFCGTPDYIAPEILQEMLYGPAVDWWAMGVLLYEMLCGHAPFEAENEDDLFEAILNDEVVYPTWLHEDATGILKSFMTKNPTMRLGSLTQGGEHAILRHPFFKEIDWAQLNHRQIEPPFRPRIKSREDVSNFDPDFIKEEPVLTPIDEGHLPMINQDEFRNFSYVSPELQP

[6] = biological target: Muscarinic acetylcholine receptor M1 (Homo sapiens, UniProt P11229); assay: Selectivity interaction (Muscarinic M1 receptor assay, human recombinant ) EUB0000877a CHRM1
Chain of Muscarinic acetylcholine receptor M1 (P11229 whole entry): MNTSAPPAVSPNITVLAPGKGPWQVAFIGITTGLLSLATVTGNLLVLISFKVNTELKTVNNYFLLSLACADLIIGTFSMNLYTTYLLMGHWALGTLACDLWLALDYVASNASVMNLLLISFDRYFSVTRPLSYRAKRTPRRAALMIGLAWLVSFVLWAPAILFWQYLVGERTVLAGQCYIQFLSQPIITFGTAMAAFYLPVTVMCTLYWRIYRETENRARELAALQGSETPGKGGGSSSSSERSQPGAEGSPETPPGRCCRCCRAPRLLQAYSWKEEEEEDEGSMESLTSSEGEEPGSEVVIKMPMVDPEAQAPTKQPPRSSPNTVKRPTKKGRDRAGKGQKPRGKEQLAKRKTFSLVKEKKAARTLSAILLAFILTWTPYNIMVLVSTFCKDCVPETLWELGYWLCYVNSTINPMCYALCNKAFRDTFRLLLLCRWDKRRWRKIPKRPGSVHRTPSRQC

[7] = biological target: T2, Lymphokine-activated killer T-cell-originated protein kinase (Homo sapiens) (UniProt Q96KB5); assay: Selectivity interaction (Kinase panel (literature)) EUB0001199aCl PBK; details: at 1 µM
T2 sequence (whole entry): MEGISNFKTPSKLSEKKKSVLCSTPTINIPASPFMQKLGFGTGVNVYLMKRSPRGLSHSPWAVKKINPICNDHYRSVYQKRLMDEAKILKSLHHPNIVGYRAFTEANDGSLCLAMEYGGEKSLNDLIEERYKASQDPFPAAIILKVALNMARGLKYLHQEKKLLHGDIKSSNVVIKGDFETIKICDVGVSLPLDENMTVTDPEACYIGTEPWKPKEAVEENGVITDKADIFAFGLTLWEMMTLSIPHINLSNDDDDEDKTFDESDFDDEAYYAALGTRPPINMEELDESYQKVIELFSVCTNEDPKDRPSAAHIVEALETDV

[8] = biological target: T3, Serine/threonine-protein kinase D2 (Homo sapiens) (UniProt Q9BZL6); assay: Selectivity interaction (KinomeScan (DiscoverX)) EUB0000618a PRKD2; details: at 10 µM
T3 sequence (whole entry): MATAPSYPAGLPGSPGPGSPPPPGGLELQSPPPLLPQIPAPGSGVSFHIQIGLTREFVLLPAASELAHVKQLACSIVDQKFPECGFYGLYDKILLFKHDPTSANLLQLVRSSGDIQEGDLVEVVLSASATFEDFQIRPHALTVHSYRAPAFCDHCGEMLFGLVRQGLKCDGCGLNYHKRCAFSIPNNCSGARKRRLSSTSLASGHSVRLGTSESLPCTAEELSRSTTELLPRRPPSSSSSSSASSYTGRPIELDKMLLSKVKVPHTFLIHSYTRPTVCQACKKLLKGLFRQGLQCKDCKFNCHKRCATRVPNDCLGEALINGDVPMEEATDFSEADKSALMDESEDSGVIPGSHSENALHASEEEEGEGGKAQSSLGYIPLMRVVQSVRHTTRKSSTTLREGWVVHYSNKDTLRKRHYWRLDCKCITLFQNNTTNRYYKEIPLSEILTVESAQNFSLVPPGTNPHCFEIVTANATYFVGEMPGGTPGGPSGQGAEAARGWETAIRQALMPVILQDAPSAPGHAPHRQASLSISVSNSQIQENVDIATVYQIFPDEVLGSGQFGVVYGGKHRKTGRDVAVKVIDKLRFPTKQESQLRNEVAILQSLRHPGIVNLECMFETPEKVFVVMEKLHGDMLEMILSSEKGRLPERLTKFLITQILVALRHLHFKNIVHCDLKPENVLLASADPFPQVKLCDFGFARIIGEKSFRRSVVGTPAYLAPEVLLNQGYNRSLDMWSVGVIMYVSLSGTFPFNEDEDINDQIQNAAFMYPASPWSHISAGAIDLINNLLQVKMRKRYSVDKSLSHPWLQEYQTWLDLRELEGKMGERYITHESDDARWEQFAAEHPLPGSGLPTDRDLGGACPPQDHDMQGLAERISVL

[9] = biological target: T4, Serine/threonine-protein kinase Sgk3 (Homo sapiens) (UniProt Q96BR1); assay: Selectivity interaction (ActivX KiNativ screen (kinase selectivity in THP-1 cell lysates)) EUB0000639a SGK3; format: subcellular; details: lysate, at 5 µM
T4 sequence (whole entry): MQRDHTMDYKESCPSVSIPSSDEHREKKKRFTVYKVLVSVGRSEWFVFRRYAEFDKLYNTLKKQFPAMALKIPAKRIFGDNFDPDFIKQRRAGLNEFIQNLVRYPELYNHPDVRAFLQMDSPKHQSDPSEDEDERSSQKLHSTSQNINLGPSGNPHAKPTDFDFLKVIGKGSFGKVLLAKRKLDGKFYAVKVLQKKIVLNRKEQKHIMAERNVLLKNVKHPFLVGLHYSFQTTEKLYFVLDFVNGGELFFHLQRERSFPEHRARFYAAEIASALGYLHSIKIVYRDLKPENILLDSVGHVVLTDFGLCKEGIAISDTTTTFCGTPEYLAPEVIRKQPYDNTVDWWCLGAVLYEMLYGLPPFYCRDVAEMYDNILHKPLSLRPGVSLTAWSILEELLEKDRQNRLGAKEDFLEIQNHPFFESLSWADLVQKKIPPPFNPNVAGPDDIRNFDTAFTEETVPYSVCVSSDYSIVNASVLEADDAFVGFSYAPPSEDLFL

For `CN(C(=O)c1cnn2cccnc12)c1cc2c(cc1N1CCOCC1)C(=O)N(C[C@@H](F)C(C)(C)O)C2`, which dTM [1] is on record?
The dTM was 0.2 K.

With `C=CC(=O)Nc1cc(-n2c(=O)ccc3cnc4ccc(-c5ccc(NS(C)(=O)=O)cc5)cc4c32)ccc1C` as the compound, how does the % of control ([2]; at 1 µM) read?
The % of control was 100%.

What about the % of control ([2]; at 10 µM) of the same compound?
The % of control was 88%.

With `Nc1cnc(N2CCc3cc(S(=O)(=O)Nc4c(F)cc(Cl)cc4F)cc(N4CCCC4=O)c32)nc1` [TP-020n] as the compound, how does the % of inhibition (Histamine H3 receptor) read?
The % of inhibition was -1.21%.

With `COc1cc(Nc2nc(C)cc(-c3cnn4nc(OC)ccc34)n2)cc(C(F)(F)F)c1` as the compound, how does the % of control [3] read?
Its % of control is 87%.

What about the % of control [4] of the same compound?
The % of control was 100%.

`CC(=O)Nc1cccc(-n2c(=O)n(C3CC3)c(=O)c3c(Nc4ccc(I)cc4F)n(C)c(=O)c(C)c32)c1` was tested. Which % of control [5] did it give?
The % of control was 107%.

With `CCC(=O)N1CC[C@H](Nc2ncnc3c2CN(c2cnc(OC)c(C(F)(F)F)c2)CC3)C1` [LENIOLISIB] as the compound, how does the IC50 [6] read?
Its IC50 is > 30 µM.

For `CN1Cc2nccc(-c3cn(C)nc3-c3ccc(F)cc3)c2C1=O`, which % of inhibition [7] is on record?
The % of inhibition was -3%.

With `O[C@H]1CC[C@H](Nc2ncc3nc(Nc4c(F)cc(F)cc4F)n([C@H]4CCOC4)c3n2)CC1` as the compound, how does the % of control [8] read?
Its % of control is 77%.

How did the % of inhibition [9] turn out when `CC[C@@H]1[C@H](F)C(=O)N[C@@H]1COc1nccc2cc(C(N)=O)c(OC)cc12` [ZIMLOVISERTIB] was run?
Its % of inhibition is -1.4%.
